Patent publication US20230218624A1 (Urovant Sciences GmbH, priority 2017, published 2023)

Tests used:
[1] = test system: patients with overactive bladder; test: Phase 2 safety data, adverse events (main study and 52-week extension)
Description: A placebo group was included in the main study, and a group that received tolterodine monotherapy was included in the main study and in the extension.

patients with OAB = test: Phase 2b cardiovascular safety: orthostatic AEs, HR and BP changes; format: in vivo, human; settings: for DBP change from baseline ≥5 mm Hg, subjects / DBP change from baseline ≥10 bpm, subjects / DBP change from baseline ≥15 bpm, subjects / HR change from baseline ≥5 bpm, subjects / HR change from baseline ≥10 bpm, subjects / HR change from baseline ≥15 bpm, subjects / SBP change from baseline ≥5 mm Hg, subjects / SBP change from baseline ≥10 bpm, subjects / SBP change from baseline ≥15 bpm, subjects: 3 consecutive post-baseline visits
Description: None led to discontinuation. The overall incidence of orthostatic symptoms was low.
Small differences in the percent of subjects exceeding categorical heart rate and blood pressure thresholds for vibegron were similar to those in the tolterodine arm.

O=C(Nc1ccc(C[C@@H]2CC[C@H]([C@H](O)c3ccccc3)N2)cc1)[C@@H]1CCc2nccc(=O)n21 [Vibegron, (6S)—N-[4-[[(2S,5R)-5-[(R)-hydroxy(phenyl)methyl]pyrrolidin-2-yl]methyl]phenyl]-4-oxo-7,8-dihydro-6H-pyrrolo[1,2-a]pyrimidine-6-carboxamide]
Accidental overdose, % subjects ([1]; 50 mg, first 12 weeks): (2.7) %
Accidental overdose, n subjects ([1]; 50 mg, first 12 weeks): 4
Accidental overdose, % subjects ([1]; 100 mg, first 12 weeks): (4.2) %
Accidental overdose, n subjects ([1]; 100 mg, first 12 weeks): 11
≥1 AE, n subjects ([1]; 100 mg, first 12 weeks): 107
frequency of injuries ([1]; human, in vivo): 0.9%
increased exposure (potential risk) ([1]; human, in vivo): ~2 fold
SBP and DBP mean changes at Week 1 and mean maximum changes over 8 weeks, difference between placebo and vibegron (patients with OAB; 50 mg and 100 mg): < 1 mm Hg
HR mean maximum changes over 8 weeks, comparable to placebo (patients with OAB; all doses): < 2 bpm
DBP change from baseline, mean (week 1) (patients with OAB; vibegron 3 mg): −0.37 mm Hg
DBP change from baseline, mean maximum (week 1 to 8) (patients with OAB; vibegron 3 mg): 5.03 mm Hg
HR change from baseline, mean (week 1) (patients with OAB; vibegron 3 mg): 0.36 bpm
HR change from baseline, mean maximum (week 1 to 8) (patients with OAB; vibegron 3 mg): 5.57 bpm
SBP change from baseline, mean (week 1) (patients with OAB; vibegron 3 mg): −0.35 mm Hg
SBP change from baseline, mean maximum (week 1 to 8) (patients with OAB; vibegron 3 mg): 7.14 mm Hg
DBP change from baseline ≥5 mm Hg, subjects (patients with OAB; vibegron 3 mg): (10.0) %
DBP change from baseline ≥10 bpm, subjects (patients with OAB; vibegron 3 mg): (2.1) %
DBP change from baseline ≥15 bpm, subjects (patients with OAB; vibegron 3 mg): (0.7) %
HR change from baseline ≥5 bpm, subjects (patients with OAB; vibegron 3 mg): (11.4) %
HR change from baseline ≥10 bpm, subjects (patients with OAB; vibegron 3 mg): (3.6) %
HR change from baseline ≥15 bpm, subjects (patients with OAB; vibegron 3 mg): (0.7) %
SBP change from baseline ≥5 mm Hg, subjects (patients with OAB; vibegron 3 mg): (15.0) %
SBP change from baseline ≥10 bpm, subjects (patients with OAB; vibegron 3 mg): (7.1) %
SBP change from baseline ≥15 bpm, subjects (patients with OAB; vibegron 3 mg): (2.9) %
DBP change from baseline, mean (week 1) (patients with OAB; vibegron 15 mg): 0.03 mm Hg
DBP change from baseline, mean maximum (week 1 to 8) (patients with OAB; vibegron 15 mg): 6.37 mm Hg
HR change from baseline, mean (week 1) (patients with OAB; vibegron 15 mg): 0.35 bpm
HR change from baseline, mean maximum (week 1 to 8) (patients with OAB; vibegron 15 mg): 6.56 bpm
SBP change from baseline, mean (week 1) (patients with OAB; vibegron 15 mg): −0.34 mm Hg
SBP change from baseline, mean maximum (week 1 to 8) (patients with OAB; vibegron 15 mg): 8.93 mm Hg
subjects with orthostatic related AEs (patients with OAB; vibegron 15 mg group): 0.3%
DBP change from baseline ≥5 mm Hg, subjects (patients with OAB; vibegron 15 mg): (11.4) %
DBP change from baseline ≥10 bpm, subjects (patients with OAB; vibegron 15 mg): (2.3) %
DBP change from baseline ≥15 bpm, subjects (patients with OAB; vibegron 15 mg): (0.8) %
HR change from baseline ≥5 bpm, subjects (patients with OAB; vibegron 15 mg): (12.9) %
HR change from baseline ≥10 bpm, subjects (patients with OAB; vibegron 15 mg): (3.0) %
HR change from baseline ≥15 bpm, subjects (patients with OAB; vibegron 15 mg): (0.8) %
SBP change from baseline ≥5 mm Hg, subjects (patients with OAB; vibegron 15 mg): (16.7) %
SBP change from baseline ≥10 bpm, subjects (patients with OAB; vibegron 15 mg): (6.8) %
SBP change from baseline ≥15 bpm, subjects (patients with OAB; vibegron 15 mg): (0.8) %
DBP change from baseline, mean (week 1) (patients with OAB; vibegron 50 mg): −0.70 mm Hg
DBP change from baseline, mean maximum (week 1 to 8) (patients with OAB; vibegron 50 mg): 4.19 mm Hg
HR change from baseline, mean (week 1) (patients with OAB; vibegron 50 mg): 0.29 bpm
HR change from baseline, mean maximum (week 1 to 8) (patients with OAB; vibegron 50 mg): 5.49 bpm
SBP change from baseline, mean (week 1) (patients with OAB; vibegron 50 mg): −0.79 mm Hg
SBP change from baseline, mean maximum (week 1 to 8) (patients with OAB; vibegron 50 mg): 7.01 mm Hg
subjects with orthostatic related AEs (patients with OAB; vibegron 50 mg+tolterodine ER/vibegron 50 mg treatment group): 0.8%
DBP change from baseline ≥5 mm Hg, subjects (patients with OAB; vibegron 50 mg): (7.6) %
DBP change from baseline ≥10 bpm, subjects (patients with OAB; vibegron 50 mg): (3.5) %
DBP change from baseline ≥15 bpm, subjects (patients with OAB; vibegron 50 mg): (0.7) %
HR change from baseline ≥5 bpm, subjects (patients with OAB; vibegron 50 mg): (8.3) %
HR change from baseline ≥10 bpm, subjects (patients with OAB; vibegron 50 mg): (2.8) %
HR change from baseline ≥15 bpm, subjects (patients with OAB; vibegron 50 mg): (0.7) %
SBP change from baseline ≥5 mm Hg, subjects (patients with OAB; vibegron 50 mg): (16.7) %
SBP change from baseline ≥10 bpm, subjects (patients with OAB; vibegron 50 mg): (9.7) %
SBP change from baseline ≥15 bpm, subjects (patients with OAB; vibegron 50 mg): (2.1) %
DBP change from baseline, mean (week 1) (patients with OAB; vibegron 100 mg): −0.69 mm Hg
DBP change from baseline, mean maximum (week 1 to 8) (patients with OAB; vibegron 100 mg): 4.80 mm Hg
HR change from baseline, mean (week 1) (patients with OAB; vibegron 100 mg): 0.35 bpm
HR change from baseline, mean maximum (week 1 to 8) (patients with OAB; vibegron 100 mg): 6.12 bpm
SBP change from baseline, mean (week 1) (patients with OAB; vibegron 100 mg): −0.77 mm Hg
SBP change from baseline, mean maximum (week 1 to 8) (patients with OAB; vibegron 100 mg): 6.51 mm Hg
subjects with orthostatic related AEs (patients with OAB; vibegron 100 mg group): 1.1%
DBP change from baseline ≥5 mm Hg, subjects (patients with OAB; vibegron 100 mg): (13.1) %
DBP change from baseline ≥10 bpm, subjects (patients with OAB; vibegron 100 mg): (3.4) %
HR change from baseline ≥5 bpm, subjects (patients with OAB; vibegron 100 mg): (11.8) %
HR change from baseline ≥10 bpm, subjects (patients with OAB; vibegron 100 mg): (3.0) %
HR change from baseline ≥15 bpm, subjects (patients with OAB; vibegron 100 mg): (0.4) %
SBP change from baseline ≥5 mm Hg, subjects (patients with OAB; vibegron 100 mg): (11.8) %
SBP change from baseline ≥10 bpm, subjects (patients with OAB; vibegron 100 mg): (4.2) %
SBP change from baseline ≥15 bpm, subjects (patients with OAB; vibegron 100 mg): (1.3) %
